Results taken from doi:10.1101/2025.01.28.635346v1 (bioRxiv, 2025).
Read-outs that look alike come from different tables or passages of the source. Bridge positions count the residues as written; N and C are the ends. Side chains are listed from the residue outwards. Peptide text beside a SMILES is read from it. * marks the point of attachment. Butanoyl(4-(4-I-phenyl)) = O=C(CCCc1ccc(I)cc1)*; PEG2 = NCCOCCOCCC(=O)O

Tests used:
[1] = biological target: T1, integrin αvβ8 (Homo sapiens, UniProt P06756+P26012); test: ELISA competition assay, integrin αvβ8 binding to LAP
[2] = biological target: integrin αvβ1 (Homo sapiens, UniProt P05556+P06756); test: ELISA competition assay, integrin αvβ1; type: binding
[3] = biological target: integrin αvβ5 (Homo sapiens, UniProt P06756+P18084); test: ELISA competition assay, integrin αvβ5; type: binding
[4] = biological target: T2, integrin αIIbβ3 (Homo sapiens, UniProt P05106+P08514); test: ELISA competition assay, integrin αIIbβ3; type: binding
T2 sequence (P08514 32-993 limits assumed): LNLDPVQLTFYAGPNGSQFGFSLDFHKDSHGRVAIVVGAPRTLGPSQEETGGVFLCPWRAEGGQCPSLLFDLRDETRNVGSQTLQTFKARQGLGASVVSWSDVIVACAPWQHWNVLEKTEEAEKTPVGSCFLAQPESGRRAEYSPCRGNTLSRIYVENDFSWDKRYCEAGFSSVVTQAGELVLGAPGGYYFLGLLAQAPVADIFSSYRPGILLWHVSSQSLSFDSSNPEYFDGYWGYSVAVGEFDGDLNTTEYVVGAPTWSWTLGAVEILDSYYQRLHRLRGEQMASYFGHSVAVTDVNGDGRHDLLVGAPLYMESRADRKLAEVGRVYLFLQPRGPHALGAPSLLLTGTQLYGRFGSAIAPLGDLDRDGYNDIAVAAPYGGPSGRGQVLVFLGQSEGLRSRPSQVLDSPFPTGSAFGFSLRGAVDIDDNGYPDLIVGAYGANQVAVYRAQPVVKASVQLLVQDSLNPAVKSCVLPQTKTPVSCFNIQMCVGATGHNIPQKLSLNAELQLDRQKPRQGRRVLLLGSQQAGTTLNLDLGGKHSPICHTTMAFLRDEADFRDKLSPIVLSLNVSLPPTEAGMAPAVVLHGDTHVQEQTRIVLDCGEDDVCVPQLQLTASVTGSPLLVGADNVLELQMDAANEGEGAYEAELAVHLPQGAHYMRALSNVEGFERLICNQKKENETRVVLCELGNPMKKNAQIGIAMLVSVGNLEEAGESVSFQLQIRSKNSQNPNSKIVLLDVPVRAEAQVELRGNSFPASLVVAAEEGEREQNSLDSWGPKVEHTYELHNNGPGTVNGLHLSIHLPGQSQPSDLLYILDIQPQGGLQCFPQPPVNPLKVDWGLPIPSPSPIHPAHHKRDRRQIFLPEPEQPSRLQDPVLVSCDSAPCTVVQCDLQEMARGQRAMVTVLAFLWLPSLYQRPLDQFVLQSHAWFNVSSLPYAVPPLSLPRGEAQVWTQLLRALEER
T2 sequence (P05106 27-718 limits assumed): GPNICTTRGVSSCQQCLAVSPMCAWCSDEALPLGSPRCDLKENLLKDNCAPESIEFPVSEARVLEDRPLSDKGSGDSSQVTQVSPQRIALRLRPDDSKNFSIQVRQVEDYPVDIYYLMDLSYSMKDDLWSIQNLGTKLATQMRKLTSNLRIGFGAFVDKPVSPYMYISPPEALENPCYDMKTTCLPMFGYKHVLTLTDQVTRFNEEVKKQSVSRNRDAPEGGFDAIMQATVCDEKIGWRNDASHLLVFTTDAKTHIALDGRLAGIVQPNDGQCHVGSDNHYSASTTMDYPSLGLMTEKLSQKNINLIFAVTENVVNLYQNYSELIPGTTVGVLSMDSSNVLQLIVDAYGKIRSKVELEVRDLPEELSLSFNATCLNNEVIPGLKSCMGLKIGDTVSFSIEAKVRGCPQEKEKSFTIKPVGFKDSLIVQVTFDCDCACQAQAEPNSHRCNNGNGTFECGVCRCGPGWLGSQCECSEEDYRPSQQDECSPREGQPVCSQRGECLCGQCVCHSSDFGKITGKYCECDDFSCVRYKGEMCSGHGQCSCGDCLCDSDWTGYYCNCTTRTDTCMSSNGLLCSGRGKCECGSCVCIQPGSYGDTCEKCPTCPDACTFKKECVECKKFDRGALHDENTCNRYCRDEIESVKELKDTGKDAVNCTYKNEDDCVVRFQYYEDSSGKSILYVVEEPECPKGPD

[5] = biological target: integrin α8β1 (Homo sapiens, UniProt P05556+P53708); test: ELISA competition assay, integrin α8β1; type: binding
[6] = biological target: integrin αvβ3 (Homo sapiens, UniProt P05106+P06756); test: ELISA competition assay, integrin αvβ3; type: binding
[7] = biological target: T3, integrin αvβ6 (Homo sapiens, UniProt P06756+P18564); test: ELISA competition assay, integrin αvβ6 binding to LAP; settings: mean
[8] = biological target: integrin α5β1 (Homo sapiens, UniProt P05556+P08648); test: ELISA competition assay, integrin α5β1; type: binding
[9] = biological target: T4, Mouse αvβ6 (Mus musculus, UniProt P43406+Q9Z0T9); test: ELISA competition assay, mouse integrin αvβ6; type: binding
T4 sequence (P43406 31-988 limits assumed): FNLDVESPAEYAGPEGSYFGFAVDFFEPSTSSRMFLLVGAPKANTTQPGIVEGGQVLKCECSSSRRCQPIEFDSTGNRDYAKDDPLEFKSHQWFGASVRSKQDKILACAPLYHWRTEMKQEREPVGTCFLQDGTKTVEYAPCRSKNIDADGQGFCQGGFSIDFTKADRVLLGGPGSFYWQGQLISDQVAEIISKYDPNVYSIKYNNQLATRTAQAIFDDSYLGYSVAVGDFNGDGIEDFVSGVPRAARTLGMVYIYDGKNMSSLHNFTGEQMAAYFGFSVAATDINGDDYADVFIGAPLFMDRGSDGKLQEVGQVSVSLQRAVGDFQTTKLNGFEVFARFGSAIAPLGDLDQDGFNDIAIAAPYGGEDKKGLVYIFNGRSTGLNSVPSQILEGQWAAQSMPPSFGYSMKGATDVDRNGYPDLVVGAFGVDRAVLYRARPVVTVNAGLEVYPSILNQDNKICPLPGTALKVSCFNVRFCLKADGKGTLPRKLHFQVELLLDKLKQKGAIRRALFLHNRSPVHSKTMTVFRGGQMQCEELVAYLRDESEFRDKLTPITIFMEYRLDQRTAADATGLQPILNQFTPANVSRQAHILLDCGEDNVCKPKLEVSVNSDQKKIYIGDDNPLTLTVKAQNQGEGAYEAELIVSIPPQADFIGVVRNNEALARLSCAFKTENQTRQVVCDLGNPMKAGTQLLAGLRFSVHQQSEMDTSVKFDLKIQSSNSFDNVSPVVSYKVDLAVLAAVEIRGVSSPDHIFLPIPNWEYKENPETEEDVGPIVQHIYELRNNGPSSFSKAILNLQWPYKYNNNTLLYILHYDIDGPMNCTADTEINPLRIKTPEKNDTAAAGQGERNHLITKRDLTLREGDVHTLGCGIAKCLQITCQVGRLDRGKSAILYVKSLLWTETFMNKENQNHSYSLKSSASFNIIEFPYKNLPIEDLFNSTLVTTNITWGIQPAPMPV
T4 sequence (Q9Z0T9 22-707 limits assumed): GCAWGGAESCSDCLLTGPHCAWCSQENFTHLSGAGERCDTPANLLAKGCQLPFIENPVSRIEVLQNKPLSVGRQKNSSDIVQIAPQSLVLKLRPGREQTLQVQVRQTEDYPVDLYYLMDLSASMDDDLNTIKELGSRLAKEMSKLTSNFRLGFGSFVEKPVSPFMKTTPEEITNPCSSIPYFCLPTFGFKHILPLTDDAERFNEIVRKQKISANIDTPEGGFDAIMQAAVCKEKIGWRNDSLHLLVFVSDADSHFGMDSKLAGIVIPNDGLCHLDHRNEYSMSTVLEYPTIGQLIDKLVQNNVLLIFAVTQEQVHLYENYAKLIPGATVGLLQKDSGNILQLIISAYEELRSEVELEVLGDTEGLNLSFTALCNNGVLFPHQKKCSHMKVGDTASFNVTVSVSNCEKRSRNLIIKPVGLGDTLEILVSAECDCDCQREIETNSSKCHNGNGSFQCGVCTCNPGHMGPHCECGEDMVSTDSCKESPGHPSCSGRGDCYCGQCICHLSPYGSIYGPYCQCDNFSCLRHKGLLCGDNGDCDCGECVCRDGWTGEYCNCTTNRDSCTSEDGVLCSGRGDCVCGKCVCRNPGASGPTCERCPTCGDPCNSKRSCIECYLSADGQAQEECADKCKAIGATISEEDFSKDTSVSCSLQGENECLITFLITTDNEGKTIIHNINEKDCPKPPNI

[10] = biological target: T3, integrin αvβ6; test: AlphaLISA competition assay vs LAP, biotinylated αvβ6; type: binding
[11] = biological target: T1, integrin αvβ8; test: AlphaLISA competition assay vs LAP, biotinylated αvβ8; type: binding
[12] = αvβ6 IC50, ELISA competition vs LAP, n ≥ 3

Row | SMILES | IC50 [1] [nM] | IC50 [2] [nM] | IC50 [3] [nM] | IC50 [4] [nM] | IC50 [5] [nM] | IC50 [6] [nM] | IC50 [7, 12] [nM] | IC50 [8] [nM] | also measured
1 | CC(C)C[C@H](NC(=O)[C@H](CC(=O)O)NC(=O)CNC(=O)[C@H](CCCNC(=N)N)NC(=O)[C@@H](NC(=O)[C@H](Cc1ccccc1)NC(=O)[C@H](Cc1ccc(O)cc1)NC(=O)[C@@H]1CCC(=O)NCC(=O)NCC(=O)N[C@@H](CCCCN)C(=O)NCC(=O)N[C@@H](Cc2c[nH]cn2)C(=O)N[C@@H](C(C)C)C(=O)N2CCC[C@H]2C(=O)N1)C(C)C)C(=O)N[C@@H](CCC(N)=O)C(=O)N[C@@H](CO)C(=O)N[C@@H](Cc1ccccc1)C(=O)N[C@@H](Cc1ccc(O)cc1)C(=O)NCC(=O)O [lassotide 37] (GGKGHVPEYFVRGDLQSFYG-OH; lactam N-8; C-terminus assumed) | 9 | 21 | > 10000 | 394 | > 10000 | 186 | 3.1 | 944 | 
2 | CC[C@H](C)[C@H](NC(=O)[C@H](CC(C)C)NC(=O)[C@H](CC(=O)O)NC(=O)CNC(=O)[C@H](CCCNC(=N)N)NC(=O)[C@H](CCC(N)=O)NC(=O)[C@H](Cc1ccccc1)NC(=O)[C@H](Cc1ccc(O)cc1)NC(=O)[C@@H]1CCC(=O)NCC(=O)NCC(=O)N[C@@H](C)C(=O)NCC(=O)N[C@@H](Cc2c[nH]cn2)C(=O)N[C@@H](C(C)C)C(=O)N2CCC[C@H]2C(=O)N1)C(=O)N[C@@H](CO)C(=O)N[C@@H](Cc1ccccc1)C(=O)N[C@@H](Cc1ccc(O)cc1)C(=O)NCC(=O)O [lassotide 21] (GGAGHVPEYFQRGDLISFYG-OH; lactam N-8; C-terminus assumed) |  |  |  |  |  |  |  |  | IC50 [9]: 44 nM; IC50 ([7]; Human αvß6 IC50, ELISA run in triplicate, Table S1): 40 nM; IC50 [10]: 16 nM; IC50 [11]: 39 nM
3 | COc1ccc([C@H](CC(=O)O)N2CCN(CCCc3ccc4c(n3)NCCC4)C2=O)cn1 [MK-0429, reference compound] |  |  |  |  |  |  |  |  | IC50 ([1]; read-out: αvβ8 IC50, ELISA competition vs LAP, mean, n ≥ 3): 0.7 nM; IC50 ([2]; read-out: αvβ1 IC50, ELISA competition): 1 nM; IC50 ([3]; read-out: αvβ5 IC50, ELISA competition): 0.08 nM; IC50 ([5]; read-out: α8β1 IC50, ELISA competition): 9 nM; IC50 ([6]; read-out: αvβ3 IC50, ELISA competition, mean, n ≥ 3): 0.7 nM; IC50 ([9]; read-out: Mouse αvß6 IC50, ELISA run in triplicate, mean, Table S1): 2 nM; IC50 ([7]; read-out: Human αvß6 IC50, ELISA run in triplicate, Table S1): 1 nM; IC50 ([7]; read-out: αvβ6 IC50, ELISA competition vs LAP, n ≥ 3): 1.3 nM; IC50 ([8]; read-out: α5β1 IC50, ELISA competition): 18 nM
4 | CC(C)C[C@H](NC(=O)[C@H](CC(=O)O)NC(=O)CNC(=O)[C@H](CCCNC(=N)N)NC(=O)[C@@H](NC(=O)[C@H](Cc1ccccc1)NC(=O)[C@H](Cc1ccc(O)cc1)NC(=O)[C@@H]1CCC(=O)NCC(=O)NCC(=O)N[C@@H](CCCCNC(=O)CCOCCOCCNC(=O)CCCc2ccc(I)cc2)C(=O)NCC(=O)N[C@@H](Cc2c[nH]cn2)C(=O)N[C@@H](C(C)C)C(=O)N2CCC[C@H]2C(=O)N1)C(C)C)C(=O)N[C@@H](CCC(N)=O)C(=O)N[C@@H](CO)C(=O)N[C@@H](Cc1ccccc1)C(=O)N[C@@H](Cc1ccc(O)cc1)C(=O)NCC(=O)O [lassotide 48] (GGK([PEG2-Butanoyl(4-(4-I-phenyl))])GHVPEYFVRGDLQSFYG-OH; lactam N-8; C-terminus assumed) | 0.8 | 46 | > 10000 | 446 | > 10000 | 315 | 0.7 | 2590 | 
